Reference: ChEMBL document CHEMBL1127009, “Fibrinogen receptor antagonists containing a gamma-lactam Gly-Asp isostere” (Bioorg Med Chem Lett, 1993)
Peptide text beside a SMILES is read from it. * marks the point of attachment. Cbz = O=C(OCc1ccccc1)*

What was measured:
[1] = organism: Homo sapiens; test: Inhibition of ADP-induced aggregation of human blood platelets in the presence of fibrinogen.; type: functional
[2] = molecular target: Integrin alpha-IIb/beta-3 (Homo sapiens, UniProt P05106+P08514); test: Inhibition of fibrinogen binding to purified immobilized alpha IIb beta-3 integrin isolated from membranes of human blood platelets.
Chain of Integrin alpha-IIb/beta-3 (P05106 27-788 limits assumed): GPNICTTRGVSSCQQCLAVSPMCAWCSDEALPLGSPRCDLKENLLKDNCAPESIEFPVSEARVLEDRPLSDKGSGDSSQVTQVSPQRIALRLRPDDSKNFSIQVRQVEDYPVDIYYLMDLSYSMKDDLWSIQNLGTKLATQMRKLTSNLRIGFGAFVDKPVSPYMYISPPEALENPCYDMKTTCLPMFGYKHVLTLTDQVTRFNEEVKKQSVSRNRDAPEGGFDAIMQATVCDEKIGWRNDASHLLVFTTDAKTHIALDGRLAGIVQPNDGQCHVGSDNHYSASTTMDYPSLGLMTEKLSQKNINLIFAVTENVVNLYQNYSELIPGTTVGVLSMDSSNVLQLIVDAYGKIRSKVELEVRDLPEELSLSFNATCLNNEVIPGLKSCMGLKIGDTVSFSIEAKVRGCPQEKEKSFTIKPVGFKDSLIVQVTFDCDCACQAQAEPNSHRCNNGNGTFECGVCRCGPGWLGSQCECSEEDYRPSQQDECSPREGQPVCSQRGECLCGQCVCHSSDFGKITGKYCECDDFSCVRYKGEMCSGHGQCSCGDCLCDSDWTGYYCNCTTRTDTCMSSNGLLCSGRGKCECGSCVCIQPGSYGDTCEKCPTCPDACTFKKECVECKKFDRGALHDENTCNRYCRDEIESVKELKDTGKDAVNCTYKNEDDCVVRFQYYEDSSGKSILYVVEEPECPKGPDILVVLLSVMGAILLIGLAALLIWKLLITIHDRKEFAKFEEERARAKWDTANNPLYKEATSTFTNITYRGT
Chain of Integrin alpha-IIb/beta-3 (P08514 32-887 limits assumed): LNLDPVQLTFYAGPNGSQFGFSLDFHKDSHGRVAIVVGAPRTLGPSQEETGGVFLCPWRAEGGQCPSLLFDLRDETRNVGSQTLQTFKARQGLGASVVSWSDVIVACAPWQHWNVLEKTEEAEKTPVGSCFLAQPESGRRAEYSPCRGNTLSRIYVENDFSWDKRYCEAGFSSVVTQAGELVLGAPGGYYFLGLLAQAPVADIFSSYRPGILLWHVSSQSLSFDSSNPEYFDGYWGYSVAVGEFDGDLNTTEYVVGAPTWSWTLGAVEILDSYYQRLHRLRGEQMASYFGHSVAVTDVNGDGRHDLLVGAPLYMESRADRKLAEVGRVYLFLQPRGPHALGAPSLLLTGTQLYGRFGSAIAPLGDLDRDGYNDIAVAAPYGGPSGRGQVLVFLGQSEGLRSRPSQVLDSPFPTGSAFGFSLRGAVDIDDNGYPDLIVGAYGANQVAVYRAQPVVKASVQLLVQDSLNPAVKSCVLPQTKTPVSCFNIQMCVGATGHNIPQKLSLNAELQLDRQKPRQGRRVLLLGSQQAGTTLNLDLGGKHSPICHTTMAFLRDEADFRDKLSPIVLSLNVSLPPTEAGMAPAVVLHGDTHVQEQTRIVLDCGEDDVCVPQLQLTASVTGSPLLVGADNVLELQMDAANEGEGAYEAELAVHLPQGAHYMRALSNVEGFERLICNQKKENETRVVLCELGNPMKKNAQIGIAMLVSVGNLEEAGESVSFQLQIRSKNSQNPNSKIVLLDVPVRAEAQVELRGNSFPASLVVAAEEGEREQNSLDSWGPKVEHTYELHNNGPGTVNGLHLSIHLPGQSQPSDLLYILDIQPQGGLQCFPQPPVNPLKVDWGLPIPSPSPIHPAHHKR
Chain of Integrin alpha-IIb/beta-3 (P08514 891-1039 limits assumed): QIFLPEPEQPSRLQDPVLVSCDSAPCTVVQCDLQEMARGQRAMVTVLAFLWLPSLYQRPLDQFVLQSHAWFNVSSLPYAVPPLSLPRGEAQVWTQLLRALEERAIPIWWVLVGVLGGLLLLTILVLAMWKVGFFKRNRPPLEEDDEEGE

Row | Compound | IC50 [1] [nM] | IC50 [2] [nM]
1 | COC(=O)[C@H](CC12CC3CC(CC(C3)C1)C2)NC(=O)[C@H](CC(=O)O)N1CC[C@H](NC(=O)[C@H](CCCN=C(N)N)NC(=O)OCc2ccccc2)C1=O | 4000 | 510
2 | N=C(N)c1ccc(CC(=O)N[C@H]2CCN([C@@H](CC(=O)O)C(=O)N[C@H](C(=O)O)C34CC5CC(CC(C5)C3)C4)C2=O)cc1 | 40 | 2
3 | N=C(N)c1ccc(CC(=O)N[C@H]2CCN([C@@H](CC(=O)O)C(=O)N[C@@H](Cn3ccc4ccccc43)C(=O)O)C2=O)cc1 | 740 | 20
4 | COC(=O)[C@H](Cc1ccccc1)NC(=O)[C@H](CC(=O)O)NC(=O)[C@H](C)NC(=O)[C@H](CCCNC(=N)N)NC(=O)OCc1ccccc1 | > 100000 | 78000
5 | COC(=O)[C@H](Cc1ccccc1)NC(=O)[C@H](CC(=O)O)NC(=O)CNC(=O)[C@H](CCCN=C(N)N)NC(=O)OCc1ccccc1 (Cbz-RGDF-OMe) | 13000 | 270
6 | COC(=O)[C@H](Cn1ccc2ccccc21)NC(=O)[C@H](CC(=O)O)N1CC[C@H](NC(=O)Cc2ccc(C(=N)N)cc2)C1=O | 4400 | 120
7 | COC(=O)[C@H](Cc1ccccc1)NC(=O)[C@H](CC(=O)O)N1CC[C@H](NC(=O)[C@H](CCCN=C(N)N)NC(=O)OCc2ccccc2)C1=O | 85100 | 770
8 | COC(=O)[C@H](Cc1ccccc1)NC(=O)[C@H](CC(=O)O)NC(=O)[C@@H](C)NC(=O)[C@H](CCCN=C(N)N)NC(=O)OCc1ccccc1 | > 100000 | > 100000
9 | CC(C)[C@H](NC(=O)[C@@H](CC(=O)O)N1CC[C@H](NC(=O)Cc2ccc(C(=N)N)cc2)C1=O)C(=O)O | > 100000 | > 100000
10 | CC(C)C[C@H](NC(=O)[C@H](CC(=O)O)N1CC[C@H](NC(=O)[C@H](CCCN=C(N)N)NC(=O)OCc2ccccc2)C1=O)C(=O)O | 12800 | 560
11 | CC(C)[C@H](NC(=O)[C@H](CC(=O)O)NC(=O)CNC(=O)[C@H](CCCN=C(N)N)NC(=O)OCc1ccccc1)C(=O)O (Cbz-RGDV-OH) | 3100 | 110
12 | COC(=O)[C@H](CC12CC3CC(CC(C3)C1)C2)NC(=O)[C@H](CC(=O)O)N1CC[C@H](NC(=O)Cc2ccc(C(=N)N)cc2)C1=O | 360 | 20
13 | COC(=O)[C@H](Cn1ccc2ccccc21)NC(=O)[C@H](CC(=O)O)N1CC[C@H](NC(=O)[C@H](CCCN=C(N)N)NC(=O)OCc2ccccc2)C1=O | 25100 | 1220
14 | N=C(N)NCCC[C@H](NC(=O)OCc1ccccc1)C(=O)N[C@@H]1CCN([C@@H](CC(=O)O)C(=O)N[C@@H](Cc2ccccc2)C(=O)O)C1=O | > 100000 | > 100000
15 | CC(C)C[C@H](NC(=O)[C@H](CC(=O)O)N1CC[C@H](NC(=O)Cc2ccc(C(=N)N)cc2)C1=O)C(=O)O | 360 | 40
16 | N=C(N)c1ccc(CC(=O)N[C@H]2CCN([C@@H](CC(=O)O)C(=O)N[C@@H](CC34CC5CC(CC(C5)C3)C4)C(=O)O)C2=O)cc1 | 100 | 5
17 | N=C(N)NCCC[C@H](NC(=O)OCc1ccccc1)C(=O)N[C@H]1CCN([C@@H](CC(=O)O)C(=O)N[C@@H](Cn2ccc3ccccc32)C(=O)O)C1=O | 10000 | 1070
